In US20260070945A1, “MACROCYCLIC IMMUNOMODULATORS” (Bristol-Myers Squibb Company, priority 2022, published 2026):
pIC50: −log10 of the molar value. *1 amine or outer side, *2 acyl side, *3 side chain or, on linkers, in order; H or OH if unused. Where a SMILES comes first, the peptide text is derived from it. Bridges are numbered along the chain shown (N, C = ends). [ ]: non-standard residue; d: D form. The star is where a group is joined. ξ: configuration not given here. Trp(1-CH2COOH) = N[C@@H](Cc1cn(CC(=O)O)c2ccccc12)C(=O)O; Phe(3-CF3) = N[C@@H](Cc1cccc(C(F)(F)F)c1)C(=O)O; Phe(4-CF3) = N[C@@H](Cc1ccc(C(F)(F)F)cc1)C(=O)O; Phe(4-COOH) = N[C@@H](Cc1ccc(C(=O)O)cc1)C(=O)O; Bip = N[C@@H](Cc1ccc(-c2ccccc2)cc1)C(=O)O; Phe(3-F) = N[C@@H](Cc1cccc(F)c1)C(=O)O; Phe(3-Me) = Cc1cccc(C[C@H](N)C(=O)O)c1; γGlu = O=C(O)[C@H](CCC(=O)[*:2])N[*:1]; NH(CH2)12COOH = O=C(O)CCCCCCCCCCCCN*; Phe(2-F) = N[C@@H](Cc1ccccc1F)C(=O)O; Val(3-OH) = CC(C)(O)[C@H](N)C(=O)O; X6 = O=C(Cc1ccc(CN[*:1])cc1)[*:2]; 4Pal = N[C@@H](Cc1ccncc1)C(=O)O; 2Thi = N[C@@H](Cc1cccs1)C(=O)O; Cha = N[C@@H](CC1CCCCC1)C(=O)O; Cit = NC(=O)NCCC[C@H](N)C(=O)O; Ile(3ξ) = CCC(C)[C@H](N)C(=O)O; Thr(3ξ) = CC(O)[C@H](N)C(=O)O; Ala(CN) = N#CC[C@H](N)C(=O)O; ξY = NC(Cc1ccc(O)cc1)C(=O)O; Carboxymethyl = O=C(O)C*; NMeA = CN[C@@H](C)C(=O)O; Orn = NCCC[C@H](N)C(=O)O; Aun = NCCCCCCCCCCC(=O)O; Dab = NCC[C@H](N)C(=O)O; Dap = NC[C@H](N)C(=O)O; AEEA = NCCOCCOCC(=O)O

Target: T1, PD-1/PD-L1 interaction (PE-labeled human PD-L1-Ig binding to Jurkat cell line over-expressing human PD-1) (Homo sapiens, UniProt Q15116)
T1 construct: expressed in transfected cells; host or cells: Jurkat
Experiment: Jurkat-PD-1 Cell Binding High-Content Screening Assay (CBA)
Conditions: Jurkat-hPD-1 cells, PE-labeled PD-L1-Ig 20 nM final; read-out: Jurkat HPD1 PDL1 IC50
Outline: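 Jurkat cells overexpressing human PD-1 (8×10^3/well, DMEM + 10% FCS) preincubated with compound 2 h at 37 °C, then PE-labelled human PD-L1-Ig (20 nM final) for 1 h. Cells fixed in paraformaldehyde with Hoechst 33342; bound PD-L1 quantified by high-content imaging.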

T1 sequence (Q15116 25-288): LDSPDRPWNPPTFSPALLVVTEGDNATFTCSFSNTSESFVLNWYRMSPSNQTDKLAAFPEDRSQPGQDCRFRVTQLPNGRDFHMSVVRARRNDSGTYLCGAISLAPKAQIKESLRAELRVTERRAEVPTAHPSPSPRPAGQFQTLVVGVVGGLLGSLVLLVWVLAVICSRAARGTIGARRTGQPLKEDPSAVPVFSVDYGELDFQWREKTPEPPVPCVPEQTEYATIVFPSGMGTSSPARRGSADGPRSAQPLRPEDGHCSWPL

SMILES | pIC50
Cc1cccc(C[C@@H]2NC(=O)[C@H](CC(=O)O)NC(=O)[C@H](Cc3cn(CC(=O)O)c4ccccc34)NC(=O)[C@H](CCN)NC(=O)CSC[C@@H](C(=O)N[C@@H](CCN)C(=O)NCCCCCCCCCCC(=O)O)NC(=O)[C@H]([C@@H](C)O)NC(=O)[C@H](C(C)C)NC(=O)[C@H](CC3CCCCC3)NC(=O)[C@H](CCN)NC(=O)[C@@H](CC(C)C)NC(=O)[C@H](C)N(C)C(=O)[C@H](Cc3ccc(OCC(=O)O)cc3)NC(=O)[C@H](Cc3ccc(-c4ccccc4)cc3)NC(=O)C(Cc3ccc(OCC(=O)O)cc3)NC2=O)c1 (stereo partly drawn) [Example 1133] ({CH2CO}-[Dab][Trp(1-CH2COOH)]D[Phe(3-Me)][ξY](Carboxymethyl)[Bip]Y(Carboxymethyl)[NMeA][dL][Dab][Cha]VTC[Dab][Aun]-OH; thioether N-14) | 7.53
CC(C)C[C@H]1NC(=O)[C@H](C)N(C)C(=O)[C@H](CCCNC(N)=O)NC(=O)[C@H](Cc2ccc(-c3ccccc3)cc2)NC(=O)[C@H](Cc2ccc(C(=O)O)cc2)NC(=O)[C@H](Cc2cccc(C(F)(F)F)c2)NC(=O)[C@H](CC(=O)O)NC(=O)[C@H](Cc2ccc(OCC(=O)O)cc2)NC(=O)[C@H](Cc2ccc(C(=O)O)cc2)NC(=O)CSC[C@@H](C(=O)N[C@@H](CCN)C(=O)NCCOCCOCC(=O)N[C@@H](CCC(=O)NCCOCCOCC(=O)NCCCCCCCCCCCCC(=O)O)C(=O)O)NC(=O)[C@H](CCC(=O)O)NC(=O)[C@H](C(C)C)NC(=O)[C@H](CC2CCCCC2)NC(=O)[C@H](CCN)NC1=O [Example 1158] ({CH2CO}-[Phe(4-COOH)]Y(Carboxymethyl)D[Phe(3-CF3)][Phe(4-COOH)][Bip][Cit][NMeA][dL][Dab][Cha]VEC[Dab][AEEA][γGlu][AEEA]-{NH(CH2)12COOH}; thioether N-14) | 7.30
CC(C)C[C@@H]1NC(=O)[C@H](Cc2c[nH]c3ccccc23)NC(=O)[C@H](CC(=O)O)NC(=O)[C@H](Cc2ccc(C(=O)O)cc2)NC(=O)[C@H](Cc2ccc(OCC(=O)O)cc2)NC(=O)CSC[C@@H](C(=O)N[C@@H](CCCN)C(=O)NCc2ccc(CC(=O)NCCCCCCCCCCC(=O)O)cc2)NC(=O)[C@H](CO)NC(=O)[C@H](C(C)C)NC(=O)[C@H](CC2CCCCC2)NC(=O)[C@H](CCN)NC(=O)[C@@H](CC(C)C)NC(=O)[C@H](C)N(C)C(=O)[C@H](C(C)C)NC(=O)[C@H](Cc2ccc(-c3ccccc3)cc2)NC1=O [Example 1243] ({CH2CO}-Y(Carboxymethyl)[Phe(4-COOH)]DWL[Bip]V[NMeA][dL][Dab][Cha]VSC[Orn][X6][Aun]-OH; thioether N-14) | 7.55
CCC(C)[C@@H]1NC(=O)[C@H](Cc2ccc(-c3ccccc3)cc2)NC(=O)[C@H](CC(C)C)NC(=O)[C@H](Cc2c[nH]c3ccccc23)NC(=O)[C@H](CC(=O)O)NC(=O)[C@H](Cc2ccc(O)cc2)NC(=O)[C@H](CC#N)NC(=O)CSC[C@@H](C(=O)N[C@@H](CN)C(=O)NCCOCCOCC(=O)NCCCCCCCCCCC(=O)O)NC(=O)[C@H](CO)NC(=O)[C@H](C(C)C)NC(=O)[C@H](CC2CCCCC2)NC(=O)[C@H](CCN)NC(=O)[C@@H](CC(C)C)NC(=O)[C@H](C)N(C)C1=O (stereo partly drawn) [Example 2054] ({CH2CO}-[Ala(CN)]YDWL[Bip][Ile(3ξ)][NMeA][dL][Dab][Cha]VSC[Dap][AEEA][Aun]-OH; thioether N-14) | 7.84
Cc1cccc(C[C@@H]2NC(=O)[C@H](CC(=O)O)NC(=O)[C@H](Cc3ccc(C(=O)O)cc3)NC(=O)[C@H](CCN)NC(=O)CSC[C@@H](C(=O)N[C@@H](CCN)C(=O)NCCCCCCCCCCC(=O)O)NC(=O)[C@H](CO)NC(=O)[C@H](C(C)(C)O)NC(=O)[C@H](CC3CCCCC3)NC(=O)[C@H](CCN)NC(=O)[C@@H](CC(C)C)NC(=O)[C@H](C)N(C)C(=O)[C@H](Cc3ccc(OCC(=O)O)cc3)NC(=O)[C@H](Cc3ccc(-c4ccccc4)cc3)NC(=O)[C@H](Cc3ccccc3F)NC2=O)c1 [Example 1289] ({CH2CO}-[Dab][Phe(4-COOH)]D[Phe(3-Me)][Phe(2-F)][Bip]Y(Carboxymethyl)[NMeA][dL][Dab][Cha][Val(3-OH)]SC[Dab][Aun]-OH; thioether N-14) | 7.49
Cc1cccc(C[C@@H]2NC(=O)[C@H](CC(=O)O)NC(=O)[C@H](Cc3ccc(C(=O)O)cc3)NC(=O)[C@H](Cc3cccs3)NC(=O)CSC[C@@H](C(=O)N[C@@H](CCN)C(=O)NCCCCCCCCCCC(=O)O)NC(=O)[C@H](CO)NC(=O)[C@H](C(C)(C)O)NC(=O)[C@H](CC3CCCCC3)NC(=O)[C@H](CCN)NC(=O)[C@@H](CC(C)C)NC(=O)[C@H](C)N(C)C(=O)[C@H](Cc3ccc(OCC(=O)O)cc3)NC(=O)[C@H](Cc3ccc(-c4ccccc4)cc3)NC(=O)[C@H](Cc3ccc(OCC(=O)O)cc3)NC2=O)c1 [Example 1284] ({CH2CO}-[2Thi][Phe(4-COOH)]D[Phe(3-Me)]Y(Carboxymethyl)[Bip]Y(Carboxymethyl)[NMeA][dL][Dab][Cha][Val(3-OH)]SC[Dab][Aun]-OH; thioether N-14) | 7.77
Cc1cccc(C[C@@H]2NC(=O)[C@H](CC(=O)O)NC(=O)[C@H](Cc3ccncc3)NC(=O)[C@H](Cc3ccc(OCC(=O)O)cc3)NC(=O)CSC[C@@H](C(=O)N[C@@H](CCN)C(=O)NCCOCCOCC(=O)NCCCCCCCCCCC(=O)O)NC(=O)[C@H](CCCN)NC(=O)[C@H](C(C)C)NC(=O)[C@H](CC3CCCCC3)NC(=O)[C@H](CC(N)=O)NC(=O)[C@@H](CC(C)C)NC(=O)[C@H](C)N(C)C(=O)[C@H](Cc3ccc(OCC(=O)O)cc3)NC(=O)[C@H](Cc3ccc(-c4ccccc4)cc3)NC(=O)[C@H](Cc3ccc(OCC(=O)O)cc3)NC2=O)c1 [Example 1359] ({CH2CO}-Y(Carboxymethyl)[4Pal]D[Phe(3-Me)]Y(Carboxymethyl)[Bip]Y(Carboxymethyl)[NMeA][dL]N[Cha]V[Orn]C[Dab][AEEA][Aun]-OH; thioether N-14) | 7.63

Results, then the compound that gave them:

pIC50 | SMILES
7.78 | CC(C)C[C@@H]1NC(=O)[C@H](Cc2c[nH]c3ccccc23)NC(=O)[C@H](CC(=O)O)NC(=O)[C@H](Cc2ccc(C(=O)O)cc2)NC(=O)[C@H](Cc2ccc(OCC(=O)O)cc2)NC(=O)CSC[C@@H](C(=O)NCCOCCOCC(=O)N[C@@H](CCN)C(=O)NCCCCCCCCCCC(=O)O)NC(=O)[C@H](CCCNC(N)=O)NC(=O)[C@H](C(C)C)NC(=O)[C@H](CC2CCCCC2)NC(=O)[C@H](CCN)NC(=O)[C@@H](CC(C)C)NC(=O)[C@H](C)N(C)C(=O)[C@H](C(C)C)NC(=O)[C@H](Cc2ccc(-c3ccccc3)cc2)NC1=O [Example 2156] ({CH2CO}-Y(Carboxymethyl)[Phe(4-COOH)]DWL[Bip]V[NMeA][dL][Dab][Cha]V[Cit]C[AEEA][Dab][Aun]-OH; thioether N-14)
7.68 | Cc1cccc(C[C@@H]2NC(=O)[C@H](CC(=O)O)NC(=O)[C@H](Cc3ccc(OCC(=O)O)cc3)NC(=O)[C@H](CCCNC(=N)N)NC(=O)CSC[C@@H](C(=O)N[C@@H](CCN)C(=O)NCCCCCCCCCCC(=O)O)NC(=O)[C@H](C(C)O)NC(=O)[C@H](C(C)C)NC(=O)[C@H](CC3CCCCC3)NC(=O)[C@H](CCN)NC(=O)[C@@H](CC(C)C)NC(=O)[C@H](C)N(C)C(=O)[C@H](Cc3ccc(OCC(=O)O)cc3)NC(=O)[C@H](Cc3ccc(-c4ccccc4)cc3)NC(=O)[C@H](C(C)C)NC2=O)c1 (stereo partly drawn) [Example 2308] ({CH2CO}-RY(Carboxymethyl)D[Phe(3-Me)]V[Bip]Y(Carboxymethyl)[NMeA][dL][Dab][Cha]V[Thr(3ξ)]C[Dab][Aun]-OH; thioether N-14)

Same assay, conditions: PE-labeled PD-L1-Ig 20 nM final, Jurkat-hPD-1 cells; read-out: Jurkat HPD1 PDL1 IC50

pIC50 | SMILES
6.52 | Cc1cccc(C[C@@H]2NC(=O)[C@H](CC(=O)O)NC(=O)[C@H](Cc3ccc(OCC(=O)O)cc3)NC(=O)[C@H](Cc3ccncc3)NC(=O)CSC[C@@H](C(=O)NCCOCCOCC(=O)NCCOCCOCC(=O)NCCCCCCCCCCC(=O)O)NC(=O)[C@H](CCC(=O)O)NC(=O)[C@H](C(C)(C)O)NC(=O)[C@H](CC3CCCCC3)NC(=O)[C@H](CCN)NC(=O)[C@@H](CC(C)C)NC(=O)[C@H](C)N(C)C(=O)[C@H](Cc3ccc(C(=O)O)cc3)NC(=O)[C@H](Cc3ccc(-c4ccccc4)cc3)NC(=O)[C@H](Cc3ccc(C(=O)O)cc3)NC2=O)c1 [Example 2486] ({CH2CO}-[4Pal]Y(Carboxymethyl)D[Phe(3-Me)][Phe(4-COOH)][Bip][Phe(4-COOH)][NMeA][dL][Dab][Cha][Val(3-OH)]EC[AEEA][AEEA][Aun]-OH; thioether N-14)
7.85 | CCC(C)[C@@H]1NC(=O)[C@H](Cc2ccc(-c3ccccc3)cc2)NC(=O)[C@H](Cc2ccc(C(F)(F)F)cc2)NC(=O)[C@H](Cc2cccc(F)c2)NC(=O)[C@H](CC(=O)O)NC(=O)[C@H](Cc2ccc(C(=O)O)cc2)NC(=O)[C@H](Cc2cnc[nH]2)NC(=O)CSC[C@@H](C(=O)N[C@@H](CCN)C(=O)NCCCCCCCCCCC(=O)O)NC(=O)[C@H](CO)NC(=O)[C@H](C(C)(C)O)NC(=O)[C@H](CC2CCCCC2)NC(=O)[C@H](CCN)NC(=O)[C@@H](CC(C)C)NC(=O)[C@H](C)N(C)C1=O (stereo partly drawn) [Example 2586] ({CH2CO}-H[Phe(4-COOH)]D[Phe(3-F)][Phe(4-CF3)][Bip][Ile(3ξ)][NMeA][dL][Dab][Cha][Val(3-OH)]SC[Dab][Aun]-OH; thioether N-14)
7.17 | Cc1cccc(C[C@@H]2NC(=O)[C@H](CC(=O)O)NC(=O)[C@H](Cc3ccc(OCC(=O)O)cc3)NC(=O)[C@H](Cc3ccncc3)NC(=O)CSC[C@@H](C(=O)N[C@@H](CO)C(=O)NCCOCCOCC(=O)NCCCCCCCCCCC(=O)O)NC(=O)[C@H](CCC(=O)O)NC(=O)[C@H](C(C)(C)O)NC(=O)[C@H](CC3CCCCC3)NC(=O)[C@H](CCN)NC(=O)[C@@H](CC(C)C)NC(=O)[C@H](C)N(C)C(=O)[C@H](Cc3ccc(C(=O)O)cc3)NC(=O)[C@H](Cc3ccc(-c4ccccc4)cc3)NC(=O)[C@H](Cc3ccc(C(=O)O)cc3)NC2=O)c1 [Example 2496] ({CH2CO}-[4Pal]Y(Carboxymethyl)D[Phe(3-Me)][Phe(4-COOH)][Bip][Phe(4-COOH)][NMeA][dL][Dab][Cha][Val(3-OH)]ECS[AEEA][Aun]-OH; thioether N-14)
